Measurements published in US11173145B2, “Compounds useful as inhibitors of indoleamine 2,3-dioxygenase and/or tryptophan dioxygenase” (Board of Regents, The University of Texas System, priority 2017, dated 2021).

Target: T1, IDO1 (Homo sapiens, UniProt P14902)
T1 construct: endogenous in cells; host or cells: HeLa cells (ATCC), IFNgamma-induced
Experiment: IDO1 cell-based assay (HeLa cells, IFNgamma-induced, N-formylkynurenine/L-tryptophan by RFMS)
Conditions: 10 ng/mL IFNgamma, 24 hours
Protocol: HeLa cells were obtained from the American Type Culture Collection (ATCC) and maintained in DMEM media containing 10% FBS. Cells (7,000/well) were seeded onto a 384 well plate in 50 μL of media and incubated at 37° C., 5% CO2 overnight. Cell media was aspirated, fresh media containing 10 ng/mL IFNgamma was added, and cells were incubated in absence or presence of various concentrations of test compound (final 0.5% DMSO) for 24 hours. Aliquots of the cell conditioned media were removed from the cell plate, and mixed with an equal volume of 200 mM ZnSO4 to precipitate media containing proteins. Two volumes of acetonitrile were added, mixed, and samples were then centrifuged at 2250G for 20 minutes at 4° C. Aliquots of the supernatant were diluted 1:10 in 0.1% formic acid containing 3 μM of deuterated Tryptophan as an internal standard.
Samples were analyzed via RFMS to quantify N-Formyl Kynurenine (AUC) and L-tryptophan (AUC). A C18 cartridge was used with mobile phases of 0.1% Formic Acid and 80% ACN/0.1% Formic Acid under isocratic conditions. Dose-response curves were analyzed using IC50 regression curve fitting (GeneData Screener). […] Cell viability was also assessed using the Cell Titer Glo Kit (Promega) following manufacturer recommendation.

T1 sequence (P14902 whole entry): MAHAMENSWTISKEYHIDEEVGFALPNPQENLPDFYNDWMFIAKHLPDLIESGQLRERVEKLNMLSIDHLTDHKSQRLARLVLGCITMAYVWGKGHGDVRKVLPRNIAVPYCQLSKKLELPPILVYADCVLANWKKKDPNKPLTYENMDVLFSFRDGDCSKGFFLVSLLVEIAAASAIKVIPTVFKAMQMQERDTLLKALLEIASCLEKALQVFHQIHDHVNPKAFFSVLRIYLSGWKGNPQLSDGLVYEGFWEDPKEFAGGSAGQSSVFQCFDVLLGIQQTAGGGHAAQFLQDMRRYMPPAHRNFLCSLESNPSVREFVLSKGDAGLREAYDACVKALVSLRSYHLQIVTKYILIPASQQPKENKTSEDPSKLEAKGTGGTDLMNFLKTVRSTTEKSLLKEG

`CC(NC(=O)c1ccc(Cl)cc1)[C@H]1[C@@H]2C[C@@H](n3cnc4ccc(F)cc4c3=O)C[C@@H]21` (stereo partly drawn) [Compound 63, 4-chloro-N-(1-((1R,3s,5S,6r)-3-(6-fluoro-4-oxoquinazolin-3(4H)-yl)bicyclo[3.1.0]hexan-6-yl)ethyl)benzamide] was tested, and the IC50 was < 200 nM.
`CCC(NC(=O)c1ccc(Cl)cc1)[C@H]1[C@@H]2C[C@@H](n3cc(C(N)=O)nn3)C[C@@H]21` (stereo partly drawn) [Compound 95, 1-((1R,3s,5S,6r)-6-(1-(4-chlorobenzamido)propyl)bicyclo[3.1.0]hexan-3-yl)-1H-1,2,3-triazole-4-carboxamide] was tested, and the IC50 was > 5000 nM.
`CCC(NC(=O)c1ccc(Cl)cc1)[C@H]1[C@@H]2C[C@@H](N=[N+]=[N-])C[C@@H]21` (stereo partly drawn) [Compound 90, N-(1-((1R,3s,5S,6r)-3-azidobicyclo[3.1.0]hexan-6-yl)propyl)-4-chlorobenzamide] was tested, and the IC50 was 200 to 2000 nM.
For `CC[C@@H](NC(=O)c1ccc(Cl)cc1)[C@H]1[C@@H]2C[C@@H](n3cc(Br)cn3)C[C@@H]21` [Compound 329, N-((R)-1-((1R,3S,5S,6r)-3-(4-bromo-1H-pyrazol-1-yl)bicyclo[3.1.0]hexan-6-yl)propyl)-4-chlorobenzamide], the IC50 was < 200 nM.
With `CCC(NC(=O)c1ccc(C#N)cc1)[C@H]1[C@@H]2C[C@@H](Oc3ncnc4ccc(F)cc34)C[C@@H]21` (stereo partly drawn) [Compound 66, 4-cyano-N-(1-((1R,3s,5S,6r)-3-((6-fluoroquinazolin-4-yl)oxy)bicyclo[3.1.0]hexan-6-yl)propyl)benzamide] the IC50 was < 200 nM.
In the case of `O=C(Cc1ccc(Cl)cc1)NC1[C@H]2CC(Oc3ccnc4ccccc34)C[C@@H]12` (stereo partly drawn) [Compound 30, 2-(4-chlorophenyl)-N-((1R,5S)-3-(quinolin-4-yloxy)bicyclo[3.1.0]hexan-6-yl)acetamide], the IC50 is reported as < 200 nM.
`CC[C@@H](NC(=O)c1ccc(Cl)cc1)[C@H]1[C@@H]2C[C@H](c3cncc(C4CC4)c3)C[C@@H]21` [Compound 303, 4-chloro-N-((R)-1-((1R,3R,5S,6r)-3-(5-cyclopropylpyridin-3-yl)bicyclo[3.1.0]hexan-6-yl)propyl)benzamide] was tested, and the IC50 was < 200 nM.
With `O=C(NC(CCO)[C@H]1[C@@H]2C[C@@H](Oc3ncnc4ccc(F)cc34)C[C@@H]21)c1ccc(Cl)cc1` (stereo partly drawn) [Compound 137, 4-chloro-N-(1-((1R,3s, 5S, 6r)-3-((6-fluoroquinazolin-4-yl)oxy)bicyclo[3.1.0]hexan-6-yl)-3-hydroxypropyl)benzamide] the IC50 was 2000 to 5000 nM.
With `O=S(=O)(Cc1ccc(Br)cc1)NC1C2CC(Oc3ccnc4ccccc34)CC21` (stereo not drawn) [Compound 27, 1-(4-bromophenyl)-N-(3-(quinolin-4-yloxy)bicyclo[3.1.0]hexan-6-yl)methanesulfonamide] the IC50 was > 5000 nM.
For `CC[C@@H](NC(=O)c1ccc(C#N)cc1)[C@H]1[C@@H]2CC(N=[N+]=[N-])C[C@@H]21` (stereo partly drawn) [Compound 283, N-((1R)-1-((1R,5S,6r)-3-azidobicyclo[3.1.0]hexan-6-yl)propyl)-4-cyanobenzamide], the IC50 was < 200 nM.
`CC[C@@H](NC(=O)Nc1ccc(Cl)cc1)[C@H]1[C@@H]2C[C@@H](n3cnc4cc(F)c(F)cc43)C[C@@H]21` [Compound 344, 1-(4-chlorophenyl)-3-((R)-1-((1R,3S,5S,6r)-3-(5,6-difluoro-1H-benzo[d]imidazol-1-yl)bicyclo[3.1.0]hexan-6-yl)propyl)urea] was tested, and the IC50 was < 200 nM.
`CC[C@@H](NC(=O)c1ccc(Cl)cc1)[C@H]1[C@@H]2C[C@@H](NC(=O)c3cccnc3)C[C@@H]21` [Compound 335, N-((1R,3S,5S,6r)-6-((R)-1-(4-chlorobenzamido)propyl)bicyclo[3.1.0]hexan-3-yl)nicotinamide] was tested, and the IC50 was < 200 nM.
Compound `CCC(NC(=O)c1ccc(C#N)cn1)C1C2CC(Oc3cnnc4ccccc34)CC21` [Compound 82, N-(1-((1R,3s,5S,6r)-3-(cinnolin-4-yloxy)bicyclo[3.1.0]hexan-6-yl)propyl)-5-cyanopicolinamide] has an IC50 of 200 to 2000 nM.
Compound `CC(NC(=O)c1ccc(C#N)cc1)[C@H]1[C@@H]2C[C@@H](n3cc(C4CC4)nn3)C[C@@H]21` (stereo partly drawn) [Compound 129, 4-cyano-N-(1-((1R,3s,5S,6r)-3-(4-cyclopropyl-1H-1,2,3-triazol-1-yl)bicyclo[3.1.0]hexan-6-yl)ethyl)benzamide] has an IC50 of 200 to 2000 nM.
Work on `CC[C@@H](NC(=O)c1ccc(Cl)cc1)[C@H]1[C@@H]2C[C@@H](n3cc(C(=O)O)cn3)C[C@@H]21` [Compound 328, 1-((1R,3S,5S,6r)-6-((R)-1-(4-chlorobenzamido)propyl)bicyclo[3.1.0]hexan-3-yl)-1H-pyrazole-4-carboxylic acid] yielded an IC50 of 200 to 2000 nM.
`CC[C@@H](NC(=O)c1ccc(Cl)cc1)[C@H]1[C@@H]2C[C@@H](Nc3ccccc3C(=O)O)C[C@@H]21` [Compound 346, 2-(((1R,3S,5S,6r)-6-((R)-1-(4-chlorobenzamido)propyl)bicyclo[3.1.0]hexan-3-yl)amino)benzoic acid] was tested, and the IC50 was < 200 nM.
With `CC[C@@H](NC(=O)c1ccc(Cl)cc1)[C@H]1[C@@H]2C[C@@H](n3cc(C(F)(F)F)cn3)C[C@@H]21` [Compound 332, 4-chloro-N-((R)-1-((1R,3S,5S,6r)-3-(4-(trifluoromethyl)-1H-pyrazol-1-yl)bicyclo[3.1.0]hexan-6-yl)propyl)benzamide] the IC50 was < 200 nM.
In the case of `O=C(NC1C2CN(c3ccnc4ccc(F)cc34)CC21)C(O)c1ccc(Br)cc1` (stereo not drawn) [Compound 111, 2-(4-bromophenyl)-N-(3-(6-fluoroquinolin-4-yl)-3-azabicyclo[3.1.0]hexan-6-yl)-2-hydroxyacetamide], the IC50 is reported as > 5000 nM.
With `CCC(NC(=O)c1ccc(Cl)cc1)[C@H]1[C@@H]2C[C@@H](NC(=O)c3ccncn3)C[C@@H]21` (stereo partly drawn) [Compound 149, N-((1R,3s,5S,6r)-6-(1-(4-chlorobenzamido)propyl)bicyclo[3.1.0]hexan-3-yl)pyrimidine-4-carboxamide] the IC50 was < 200 nM.
`CCC(NC(=O)c1ccc(C#N)cn1)C1C2CC(n3cnc4ccc(F)cc4c3=O)CC21` [Compound 76, 5-cyano-N-(1-((1R,3s,5S,6r)-3-(6-fluoro-4-oxoquinazolin-3(4H)-yl)bicyclo[3.1.0]hexan-6-yl)propyl)picolinamide] gave an IC50 of 200 to 2000 nM.
Work on `CCC(NC(=O)c1ccc(Cl)cc1)[C@H]1[C@@H]2C[C@@H](NS(=O)(=O)C3(C)CC3)C[C@@H]21` (stereo partly drawn) [Compound 160, 4-chloro-N-(1-((1R,3s,5S,6r)-3-((1-methylcyclopropane)-1-sulfonamido)bicyclo[3.1.0]hexan-6-yl)propyl)benzamide] yielded an IC50 of 200 to 2000 nM.
`CC[C@@H](NC(=O)c1ccc(Cl)cc1)[C@H]1[C@@H]2C[C@@H](C(CO)CO)C[C@@H]21` [Compound 291, 4-chloro-N—((R)-1-((1R,3S,5S,6r)-3-(1,3-dihydroxypropan-2-yl)bicyclo[3.1.0]hexan-6-yl)propyl)benzamide] showed an IC50 of 200 to 2000 nM.
For `CC[C@@H](NC(=O)c1ccc(Cl)cc1)[C@H]1[C@@H]2C[C@@H](n3c(C(F)(F)F)nc4ccc(F)cc43)C[C@@H]21` [Compound 276, 4-chloro-N-((R)-1-((1R,3S,5S,6r)-3-(6-fluoro-2-(trifluoromethyl)-1H-benzo[d]imidazol-1-yl)bicyclo[3.1.0]hexan-6-yl)propyl)benzamide], the IC50 was 200 to 2000 nM.
`CCC(NC(=O)c1ccc(OC)nc1)C1C2CC(Oc3ncnc4ccc(F)cc34)CC21` [Compound 78, N-(1-((1R,3s,5S,6r)-3-((6-fluoroquinazolin-4-yl)oxy)bicyclo[3.1.0]hexan-6-yl)propyl)-6-methoxynicotinamide] was tested, and the IC50 was < 200 nM.
For `CC(C)(NC(=O)c1ccc(C#N)cc1)C1[C@H]2CC(n3ncc(=O)c4ccccc43)C[C@@H]12` (stereo partly drawn) [Compound 87, 4-cyano-N-(2-((1R,5S)-3-(4-oxocinnolin-1(4H)-yl)bicyclo[3.1.0]hexan-6-yl)propan-2-yl)benzamide], the IC50 was < 200 nM.
For `CC[C@@H](NC(=O)c1ccc(Cl)cc1)[C@H]1[C@@H]2C[C@@H](NC(=O)c3ccccn3)C[C@@H]21` [Compound 333, N-((1R,3S,5S,6r)-6-((R)-1-(4-chlorobenzamido)propyl)bicyclo[3.1.0]hexan-3-yl)picolinamide], the IC50 was < 200 nM.
In the case of `O=C(Cc1ccc(Cl)cc1)NC1[C@H]2CC(Oc3ccnc4ccc(F)cc34)C[C@@H]12` (stereo partly drawn) [Compound 31, 2-(4-chlorophenyl)-N-((1R,3r,5S)-3-((6-fluoroquinolin-4-yl)oxy)bicyclo[3.1.0]hexan-6-yl)acetamide], the IC50 is reported as 200 to 2000 nM.
For `CCC(NC(=O)c1ccc(Cl)cc1)[C@H]1[C@@H]2C[C@@H](NS(=O)(=O)c3ccccc3)C[C@@H]21` (stereo partly drawn) [Compound 116, 4-chloro-N-(1-((1R,3s,5S,6r)-3-(phenylsulfonamido)bicyclo[3.1.0]hexan-6-yl)propyl)benzamide], the IC50 was 200 to 2000 nM.
In the case of `CCC(NC(=O)c1ccc(Cl)cc1)[C@H]1[C@@H]2C[C@@H](n3ncc(=O)c4ccccc43)C[C@@H]21` (stereo partly drawn) [Compound 47, 4-chloro-N-(1-((1R,3s,5S,6r)-3-(4-oxocinnolin-1(4H)-yl)bicyclo[3.1.0]hexan-6-yl)propyl)benzamide], the IC50 is reported as < 200 nM.
For `CCC(NC(=O)c1ccc(Cl)cc1)[C@H]1[C@@H]2C[C@H](Oc3ccc4nccc(Cl)c4c3)C[C@@H]21` (stereo partly drawn) [Compound 127, 4-chloro-N-(1-((1R,3r,5S,6r)-3-((4-chloroquinolin-6-yl)oxy)bicyclo[3.1.0]hexan-6-yl)propyl)benzamide], the IC50 was < 200 nM.
